# In PMC12250129, “Exploring the Therapeutic Potential of ^177Lu-PSMA-617 in a Mouse Model of Prostate Cancer Bone Metastases” (International Journal of Molecular Sciences, 2025):
# Legend:
# [1] = Radiochemical stability in human serum (iTLC); format: in vitro ADME
# Description: A precursor amount of 50 nmol was labeled with Lutetium-177, achieving a radiochemical yield of over 99% and a molar activity of 25.5 GBq/μmol within 15 min at 95 °C. The radiochemical purity of ^177Lu-PSMA-617 (Rt = 7.47 min) exceeded 98%, as determined by radio-HPLC and iTLC analyses (Figure 1). To assess radiolytic stability, ^177Lu-PSMA-617 was incubated in human serum at 4, 25, and 37 °C for 1, 24, 48, and 72 h. […] However, after 72 h, less than 5% and 4% of free ^177Lu was detected at 4 °C and 25 °C, respectively. […] These findings are consistent with other studies. […] The ability to maintain radiolabeling over an extended period reinforces its viability for targeted radiopharmaceutical therapy and molecular imaging in oncology.
# Radiolabeling was conducted as previously described. A total of 1 GBq of non-carrier added lutetium-177 (Isotopia Molecular Imaging, Petach Tikva, Israel) was mixed with 100 μL of a sodium acetate solution (0.4 M, pH 5.5), 1.25 μL of an ascorbic acid solution (20% w/w), and 5 μL of a PSMA-617 solution (10 mM, Ontores Biotechnology Co., Ltd., Hangzhou, China). The mixture solution was subjected to heating at a temperature of 95 °C while being placed on a shaker for 15 min. The labeling efficiency was measured using instant thin-layer chromatography (iTLC) on the glass microfiber chromatography paper impregnated with a silica gel (Agilent Technologies, Santa Clara, CA, USA), where 100 mM EDTA in 100 mM ammonium acetate acts as a mobile phase as described previously. The iTLC sheets were measured using a radioactive scanner (AR-2000 radio-TLC Imaging Scanner, Bioscan, Evreux, France). The labeling rate of >90% was acceptable as performed in the in vitro and in vivo studies. Radiochemical purity was also analyzed by high-performance liquid chromatography (HPLC) with a UV detector (220 nm) and a radio detector using a Zorbax SB-C18 column (Agilent Technologies, Santa Clara, CA, USA). The flow rate was 0.8 mL/min with the gradient mobile phase going from the 80% A buffer (0.1% TFA in water) and 20% B buffer (0.1% TFA in acetonitrile) to the 40% B buffer within 20 min. A sterile 0.9% sodium chloride solution was added before injections in mice. The radiochemical stability of ^177Lu-PSMA-617 in human serum up to 96 h at 4, 25, and 37 °C was tested by iTLC.
# PSMA-negative PC-3 cells = test: Cell surface binding and internalization, PC-3 cells; format: cell-based, human
# Description: Cell surface binding and internalization experiments were performed with ^177Lu-PSMA-617 using PSMA-positive LNCaP cells and PSMA-negative PC-3 cells in order to determine if the uptake of ^177Lu-PSMA-617 was PSMA-specific. For this purpose, cells were seeded in 24-well plates (10^5 cells in 1 mL of the RPMI medium/well), allowing adhesion and growth overnight at 37 °C. After the removal of the supernatant, cells were washed once with PBS prior to the addition of the RPMI medium without supplements, followed by the addition of the radiolabeled ^177Lu-PSMA-617 (in MBq/nmol) to each well. The well plates were incubated at 37 °C for 1, 2, and 4 h, respectively. The cells were washed three times with ice-cold PBS to determine the total uptake of ^177Lu-PSMA-617. The internalized fraction of ^177Lu-PSMA-617 was determined in cells which were washed with ice-cold PBS, then incubated for 10 min with acidic stripping buffer (50 mM glycine, pH 2.8) followed by an additional washing step with ice-cold PBS. Cell samples were lysed by the addition of NaOH (1 N, 1 mL) to each well. The samples of the cell suspensions were measured in a γ-counter (PerkinElmer, Waltham, MA, USA).
# PSMA-positive tumors = test system: PSMA-positive tumors; parameters: method as in PMID 31399803; conditions: single intravenous dose of 111 MBq; cited from earlier work
compound,measurement,setting,value
O=C([O-])CN1CCN(CC(=O)[O-])CCN(CC(=O)NCC2CCC(C(=O)N[C@@H](Cc3ccc4ccccc4c3)C(=O)NCCCC[C@H](NC(=O)N[C@@H](CCC(=O)O)C(=O)O)C(=O)O)CC2)CCN(CC(=O)[O-])CC1.[177Lu+3] (stereo partly shown) [^177Lu-PSMA-617],free activity,"[1]; human serum, 4 °C, after 2 h",1.2%
same,free activity,"[1]; human serum, 25 °C, after 2 h",less than 1.1%
same,free activity,"[1]; human serum, after 48 h, at 4, 25 and 37 °C",no detectable free activity
same,free 177Lu,"[1]; human serum, after 72 h, 4 °C",less than 5%
same,free 177Lu,"[1]; human serum, after 72 h, 25 °C",< 4%
same,release of free activity,"[1]; human serum, up to 72 h at 37 °C",without any release of free activity
same,free 177Lu,"[1]; over a 72 h observation period, 37 °C",less than 5%
same,internalization,PSMA-negative PC-3 cells,< 0.1 % IA/10^6 cells
same,surface binding,PSMA-negative PC-3 cells,≤ 1.7 % IA/10^6 cells
same,median survival,PSMA-positive tumors,130 days
